Data: patent US20250084074A1, “SUBSTITUTED HETEROCYCLES AS HSET INHIBITORS” (MERCK PATENT GMBH, priority 2022, published 2025)
Counter-ions that a name gives are not always drawn.

Target: HSET full length protein (Homo sapiens (Human), UniProt Q9BW19)
Assay: HSET ADP-Glo Assay S - 3 μM ATP
Format: biochemical
Conditions: 5 nM HSET, 70 μg/mL microtubule, 80 min at rt, read-out: COMBINED HSET ADP GLO IC50
In short: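 Full-length human HSET (5 nM) with paclitaxel-stabilised bovine brain microtubules (70 μg/mL) in HEPES pH 6.8 buffer was preincubated 10 min with compound. ATP at 3 μM started the reaction, which ran 80 min at rt. ADP formed was measured by ADP-Glo luminescence.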

Sequence of HSET full length protein (Q9BW19 whole entry): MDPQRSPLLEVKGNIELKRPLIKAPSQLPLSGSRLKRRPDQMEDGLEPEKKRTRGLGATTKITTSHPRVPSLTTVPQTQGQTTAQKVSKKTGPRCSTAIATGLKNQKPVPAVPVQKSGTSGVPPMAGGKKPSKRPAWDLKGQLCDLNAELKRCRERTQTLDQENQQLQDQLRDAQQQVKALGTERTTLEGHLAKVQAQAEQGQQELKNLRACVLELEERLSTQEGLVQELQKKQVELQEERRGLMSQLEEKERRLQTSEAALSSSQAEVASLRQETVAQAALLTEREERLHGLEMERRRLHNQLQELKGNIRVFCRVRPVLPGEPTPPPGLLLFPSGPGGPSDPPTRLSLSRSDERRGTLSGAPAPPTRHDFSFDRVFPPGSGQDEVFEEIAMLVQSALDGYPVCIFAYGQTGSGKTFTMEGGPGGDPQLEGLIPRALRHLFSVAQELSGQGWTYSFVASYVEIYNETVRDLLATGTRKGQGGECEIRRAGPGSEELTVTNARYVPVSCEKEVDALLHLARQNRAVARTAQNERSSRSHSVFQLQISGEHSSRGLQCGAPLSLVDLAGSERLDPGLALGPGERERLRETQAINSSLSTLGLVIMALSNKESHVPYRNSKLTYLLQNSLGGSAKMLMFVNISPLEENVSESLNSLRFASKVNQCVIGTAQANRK

IC50 [nM]	SMILES
1780	Cc1nc(NC(=O)[C@H]2C[C@@H](Nc3nccc4ccc(C(F)(F)F)cc34)C2)sc1C(=O)OC(C)(C)C [Example 109, tert-Butyl 4-methyl-2-((1s,3s)-3-((7-(trifluoromethyl)isoquinolin-1-yl)amino)cyclobutane-1-carboxamido)thiazole-5-carboxylate]
8	Cc1nc(-c2ccc3ccnc(N[C@H]4C[C@@H](C(=O)Nc5nc(C)c(C(=O)OC(C)(C)C)s5)C4)c3c2)no1 [Example 110, tert-Butyl 4-methyl-2-[[3-[[7-(5-methyl-1,2,4-oxadiazol-3-yl)-1-isoquinolyl]amino]cyclobutanecarbonyl]amino]thiazole-5-carboxylate]
68	Cc1nc(-c2ccc3ccnc(N[C@H]4C[C@@H](C(=O)N(C)c5nc(C)c(C(=O)OC(C)(C)C)s5)C4)c3c2)no1 [Example 111, tert-Butyl 4-methyl-2-[methyl-[3-[[7-(5-methyl-1,2,4-oxadiazol-3-yl)-1-isoquinolyl]amino]cyclobutanecarbonyl]amino]thiazole-5-carboxylate]
54	Cc1nc(-c2ccc3ccnc(N[C@H]4C[C@@H](C(=O)Nc5nc(Cl)c(C(=O)OC(C)(C)C)s5)C4)c3c2)no1 [Example 112, tert-Butyl 4-chloro-2-[[3-[[7-(5-methyl-1,2,4-oxadiazol-3-yl)-1-isoquinolyl]amino]cyclobutanecarbonyl]amino]thiazole-5-carboxylate]
1380	Cc1nc(-c2ccc3ccnc(N[C@H]4C[C@@H](C(=O)Nc5nc(Cl)c(C(=O)NC(C)(C)C)s5)C4)c3c2)no1 [Example 113, N-tert-butyl-4-chloro-2-[[3-[[7-(5-methyl-1,2,4-oxadiazol-3-yl)-1-isoquinolyl]amino]cyclobutanecarbonyl]amino]thiazole-5-carboxamide]
144	CCOC(=O)c1sc(NC(=O)[C@H]2C[C@@H](Nc3nccc4ccc(-c5noc(C)n5)cc34)C2)nc1C(F)F [Example 116, Ethyl-4-(difluoromethyl)-2-[[3-[[7-(5-methyl-1,2,4-oxadiazol-3-yl)-1-isoquinolyl]amino]cyclobutanecarbonyl]amino]thiazole-5-carboxylate]
9490	Cc1ccc2ccnc(N[C@H]3C[C@@H](C(=O)Nc4nc(C)c(C(C)(C)C)s4)C3)c2c1 [Example 117, N-(5-tert-butyl-4-methyl-thiazol-2-yl)-3-[(7-methyl-1-isoquinolyl)amino]cyclobutanecarboxamide]
8410	Cc1noc(-c2sc(NC(=O)CCNC(=O)c3cccc(-c4noc(C)n4)c3)nc2C)n1 [Example 118, 3-(5-methyl-1,2,4-oxadiazol-3-yl)-N-(3-((4-methyl-5-(3-methyl-1,2,4-oxadiazol-5-yl)thiazol-2-yl)amino)-3-oxopropyl)benzamide]
157	CCCOC(=O)c1cc(NC(=O)CCNC(=O)c2cccc(-c3noc(C)n3)c2)nn1C [Example 120, Propyl-1-methyl-3-(3-(3-(5-methyl-1,2,4-oxadiazol-3-yl)benzamido)propanamido)-1 H-pyrazole-5-carboxylate]
36	CCCOC(=O)c1sc(N(C)C(=O)CCNC(=O)c2cccc(-c3noc(C)n3)c2)nc1C [Example 121, Propyl-4-methyl-2-(N-methyl-3-(3-(5-methyl-1,2,4-oxadiazol-3-yl)benzamido)propanamido)thiazole-5-carboxylate]
27	Cc1nc(-c2cccc(C(=O)NCCC(=O)Nc3nc(C)c(C(=O)OC4CCCC4)s3)c2)no1 [Example 122, Cyclopentyl-4-methyl-2-(3-(3-(5-methyl-1,2,4-oxadiazol-3-yl)benzamido)propanamido)thiazole-5-carboxylate]
9	CCCCCCOC(=O)c1sc(NC(=O)CCNC(=O)c2cccc(-c3noc(C)n3)c2)nc1C [Example 123, Hexyl-4-methyl-2-(3-(3-(5-methyl-1,2,4-oxadiazol-3-yl)benzamido)propanamido)thiazole-5-carboxylate]
14	Cc1nc(-c2cccc(C(=O)NCCC(=O)Nc3nc(C)c(C(=O)OC4CCCCC4)s3)c2)no1 [Example 124, Cyclohexyl-4-methyl-2-(3-(3-(5-methyl-1,2,4-oxadiazol-3-yl)benzamido)propanamido)thiazole-5-carboxylate]
5590	Cc1nc(-c2cccc(C(=O)NCCC(=O)Nc3nc(C)c(C(=O)OCCCCN)s3)c2)no1 [Example 125, 4-aminobutyl 4-methyl-2-(3-(3-(5-methyl-1,2,4-oxadiazol-3-yl)benzamido)propanamido)thiazole-5-carboxylate hydrochloride]
39	COc1ccc(CCCOC(=O)c2sc(NC(=O)CCNC(=O)c3cccc(-c4noc(C)n4)c3)nc2C)cc1 [Example 126, 3-(4-methoxyphenyl)propyl 4-methyl-2-(3-(3-(5-methyl-1,2,4-oxadiazol-3-yl)benzamido)propanamido)thiazole-5-carboxylate]
55	COCCOCCCCOC(=O)c1sc(NC(=O)CCNC(=O)c2cccc(-c3noc(C)n3)c2)nc1C [Example 127, 4-(2-methoxyethoxy)butyl 4-methyl-2-(3-(3-(5-methyl-1,2,4-oxadiazol-3-yl)benzamido)propanamido)thiazole-5-carboxylate]

IC50 [nM]	SMILES
14100	COC(=O)c1cc(NC(=O)CCNC(=O)c2cccc(-c3noc(C)n3)c2)nn1C [Example 128, Methyl-2-methyl-5-[3-[[3-(5-methyl-1,2,4-oxadiazol-3-yl)benzoyl]amino]propanoylamino]pyrazole-3-carboxylate]
1130	CCCC(C)c1sc(NC(=O)CCNC(=O)c2cccc(-c3noc(C)n3)c2)nc1C (stereo not shown) [Example 129, 3-(5-methyl-1,2,4-oxadiazol-3-yl)-N-(3-((4-methyl-5-(pentan-2-yl)thiazol-2-yl)amino)-3-oxopropyl)benzamide]
15400	CC(=O)NCCCCOC(=O)c1sc(NC(=O)CCNC(=O)c2cccc(-c3noc(C)n3)c2)nc1C [Example 130, 4-Acetamidobutyl 4-methyl-2-(3-(3-(5-methyl-1,2,4-oxadiazol-3-yl)benzamido)propanamido)thiazole-5-carboxylate]
16	CCCOC(=O)c1cc(NC(=O)CCNc2nccc3ccc(-c4noc(C)n4)cc23)nn1C [Example 131, Propyl-1-methyl-3-(3-((7-(5-methyl-1,2,4-oxadiazol-3-yl)isoquinolin-1-yl)amino)propanamido)-1 H-pyrazole-5-carboxylate formate]
10	Cc1nc(-c2cccc(C(=O)NCCC(=O)Nc3nc(C)c(C(=O)OC(C)(C)C)s3)c2)no1 [Example 132, Tert-butyl-4-methyl-2-(3-(3-(5-methyl-1,2,4-oxadiazol-3-yl)benzamido)propanamido)thiazole-5-carboxylate]
93	CCOC(=O)c1sc(NC(=O)CCNC(=O)c2cccc(-c3noc(C)n3)c2)cc1C [Example 133, Ethyl-3-methyl-5-[3-[[3-(5-methyl-1,2,4-oxadiazol-3-yl)benzoyl]amino]propanoylamino]thiophene-2-carboxylate]
1310	CCCN(C(=O)CCNC(=O)c1cccc(-c2noc(C)n2)c1)c1nc(C)c(C(=O)OCC)s1 [Example 134, Ethyl-4-methyl-2-(3-(3-(5-methyl-1,2,4-oxadiazol-3-yl)benzamido)-N-propylpropanamido)thiazole-5-carboxylate]
428	CCOC(=O)c1cc(NC(=O)CCNc2nccc3ccc(-c4noc(C)n4)cc23)n[nH]1 [Example 135, Ethyl-3-(3-((7-(5-methyl-1,2,4-oxadiazol-3-yl)isoquinolin-1-yl)amino)propanamido)-1 H-pyrazole-5-carboxylate]
737	Cc1nc(-c2cc(C(=O)NCCC(=O)Nc3nc(C)c(C(=O)OCCCCCCO)s3)cc(C(F)(F)F)c2)no1 [Example 136, 6-Hydroxyhexyl 4-methyl-2-(3-(3-(5-methyl-1,2,4-oxadiazol-3-yl)-5-(trifluoromethyl)benzamido)propanamido)thiazole-5-carboxylate]
778	CCCCc1sc(C(=O)NCCNc2nccc3ccc(-c4noc(C)n4)cc23)nc1C [Example 137, 5-Butyl-4-methyl-N-(2-((7-(5-methyl-1,2,4-oxadiazol-3-yl)isoquinolin-1-yl)amino)ethyl)thiazole-2-carboxamide formate]
11	Cc1nc(-c2ccc3ccnc(NCCC(=O)Nc4cc(C(=O)OC5CCCC5)n(C)n4)c3c2)no1 [Example 138, Cyclopentyl-1-methyl-3-(3-((7-(5-methyl-1,2,4-oxadiazol-3-yl)isoquinolin-1-yl)amino)propanamido)-1 H-pyrazole-5-carboxylate]
5040	CCOC(=O)c1sc(C(=O)NCCNC(=O)c2cccc(-c3noc(CC)n3)c2)nc1C [Example 140, Ethyl-2-((2-(3-(5-ethyl-1,2,4-oxadiazol-3-yl)benzamido)ethyl)carbamoyl)-4-methylthiazole-5-carboxylate]
405	CCOC(=O)c1sc(C(=O)NCCNC(=O)c2cccc(-c3noc(C)n3)c2)nc1C [Example 141, Ethyl-4-methyl-2-((2-(3-(5-methyl-1,2,4-oxadiazol-3-yl)benzamido)ethyl)carbamoyl)thiazole-5-carboxylate]
288	CCOC(=O)c1sc(NC(=O)C[C@@H](C)NC(=O)c2cccc(-c3noc(C)n3)c2)nc1C [Example 142, Ethyl-(R)-4-methyl-2-(3-(3-(5-methyl-1,2,4-oxadiazol-3-yl)benzamido)butanamido)thiazole-5-carboxylate]
61	CCOC(=O)c1sc(NC(=O)C[C@H](C)NC(=O)c2cccc(-c3noc(C)n3)c2)nc1C [Example 143, Ethyl-(S)-4-methyl-2-(3-(3-(5-methyl-1,2,4-oxadiazol-3-yl)benzamido)butanamido)thiazole-5-carboxylate]
